Data reported in US20180161310A1, “COMPOUNDS AND METHODS FOR THE TREATMENT OF NEUROLOGICAL DISORDERS” (Teleos Therapeutics, LLC, priority 2016, published 2018).
Where two headings read alike, the source gives them in different places.

Biological target: T1, Kv7.2/7.3 (KCNQ2/3) (Homo sapiens, UniProt O43525+O43526)
T1 construct: expressed in transfected cells; host or cells: CHO
Experiment: CHO-Kv7.2/7.3 (KCNQ2/3) 86Rb efflux assay
Assay type: cell-based
Settings: for Emax: read-out: Max Flux %; for Conc μM @ Max Flux: concentration at which maximal 86Rb flux was seen; for Fitted Max %: fit, maximum activation set at 100% of 70 mM KCl control stimulus
Protocol: Compounds were tested at concentrations from 0.001 μM to 30 μM to generate 10-point concentration-response curve (CRC) (n=2). Retigabine and ML213 were included as control activators of Kv7.2/7.3 (KCNQ2/3). Data was normalized to ^86Rb flux elicited by application of extracellular buffer containing 70 mM KCl.
Data were fit with “maximum activation” set at 100% of 70 mM KCl control stimulus.

[1] = 10-point CRC 0.001-30 μM, n=2, fit with maximum activation set at 100% of 70 mM KCl control, read-out: EC50
[2] = 86Rb flux normalized to 70 mM KCl control
[3] = Table 7, first line of values, read-out: EC50 (μM, raw)
[4] = Table 7, second, unlabelled line of values, read-out: EC50 (μM, raw)

Row | Compound | EC50 [1] [µM] | Emax [2] [%] | EC50 [3] [µM] | EC50 [4] [µM] | Conc μM @ Max Flux [µM] | Fitted Max % [%] | Max Flux % [2] [%] | 86Rb flux elicited by reference activators (EC50 values comparable to literature values)
1 | CCCOc1nn(CCC)cc1C(=O)Nc1ccc(C(F)(F)F)c(Cl)c1 [TT0000369, N-(3-chloro-4-(trifluoromethyl)phen-yl)-3-propoxy-1-propyl-1H-pyrazole-4-carboxamide] | > 30 | 35 | 1.54 | 2.63 | 3 | 100 |  | 
2 | CCCOc1nn(CCC)cc1C(=O)Nc1cc(F)ccc1F [TT0000351, N-(2,5-difluorophenyl)-3-propoxy-1-propyl-1H-pyrazole-4-carboxamide] | > 30 | 33 | > 30 | > 10 | 10 | 100 |  | 
3 | CCCOc1nn(CCC)cc1C(=O)Nc1ccc(C#N)cc1 [TT0000366, N-(4-cyanophenyl)-3-propoxy-1-propyl-1H-pyrazole-4-carboxamide] | > 30 | 28 | 0.0054 | > 30 | 3 | 100 |  | 
4 | CCCOc1nn(CCC)cc1C(=O)Nc1ccc(F)c(Cl)c1 [TT0000352, N-(3-chloro-4-fluorophenyl)-3-propoxy-1-propyl-1H-pyrazole-4-carboxamide] | > 30 | 33 | 0.48 | 0.14 | 3 | 100 |  | 
5 | CCCOc1nn(CCC)cc1C(=O)Nc1ccc(F)cc1F [TT0000349, N-(2,4-difluorophenyl)-3-propoxy-1-propyl-1H-pyrazole-4-carboxamide] | > 30 | 33 | 0.54 | > 30 | 10 | 100 |  | 
6 | CCCOc1nn(CCC)cc1C(=O)Nc1ccccc1 [TT0000363, N-phenyl-3-propoxy-1-propyl-1H-pyrazole-4-carboxamide] | > 30 | 15 | > 30 | > 30 | 0.001 | 100 |  | 
7 | CCOC(=O)Nc1ccc(NCc2ccc(F)cc2)cc1N [Retigabine, reference compound] | 0.1 | 89 |  |  |  |  |  | 
8 | CCCOc1nn(CCC)cc1C(=O)Nc1ccc(C(F)(F)F)c(C)c1 [TT0000372, N-(3-methyl-4-(trifluoromethyl)phen-yl)-3-propoxy-1-propyl-1H-pyrazole-4-carboxamide] | > 30 | 31 | 9.5 | 1.6 | 10 | 100 |  | 
9 | Cc1cc(C)c(NC(=O)C2CC3CCC2C3)c(C)c1 (stereo not shown) [ML213, reference compound] | 0.02 |  |  |  | 0.3 | 98 | 109 | robust concentration-dependent
